Assay results: patent EP3383875B1, “3-PYRIMIDINYL PYRROLO [2,3-B] PYRIDINE AS ANTICANCER AGENTS AND THE PROCESS FOR THE PREPARATION THEREOF” (Council Of Scientific & Industrial Research, priority 2015, dated 2017)
Read-outs that look alike come from different tables or passages of the source.

Experiments:
[1] = target: CDK-2/cyclin A (Homo sapiens, UniProt P24941); assay: CDK inhibition assay, CDK-2/cyclin A against Histone HI, 33P-ATP; assay type: biochemical; details: at 500 nM
Description: Compounds were evaluated for their ability to inhibit CDK2 and CDK9 as given below.
CDK-2/cyclin A (5-20 mU diluted in 50 mM Hepes pH 7.5, 1 mM DTT, 0.02% Brij35, 100 mM NaCl) was assayed against Histone HI in a final volume of 25.5 µl containing 50 mM Hepes pH7.5, 1 mM DTT, 0.02% Brij35, 100 mM NaCl, Histone HI (1 mg/ml), 10 mM magnesium acetate and 0.02 mM [33P-g-ATP](500-1000 cpm/pmole) and incubated for 30 min at room temperature. Assays were stopped by addition of 5 µl of 0.5 M (3%) orthophosphoric acid and then harvested onto P81 Unifilter plates with a wash buffer of 50 mM orthophosphoric acid.

[2] = target: CDK-9/Cyclin T1 (Homo sapiens, UniProt P50750); assay: CDK inhibition assay, CDK-9/Cyclin T1 against substrate peptide, 33P-ATP; assay type: biochemical
Chain of CDK-9/Cyclin T1 (P50750 whole entry): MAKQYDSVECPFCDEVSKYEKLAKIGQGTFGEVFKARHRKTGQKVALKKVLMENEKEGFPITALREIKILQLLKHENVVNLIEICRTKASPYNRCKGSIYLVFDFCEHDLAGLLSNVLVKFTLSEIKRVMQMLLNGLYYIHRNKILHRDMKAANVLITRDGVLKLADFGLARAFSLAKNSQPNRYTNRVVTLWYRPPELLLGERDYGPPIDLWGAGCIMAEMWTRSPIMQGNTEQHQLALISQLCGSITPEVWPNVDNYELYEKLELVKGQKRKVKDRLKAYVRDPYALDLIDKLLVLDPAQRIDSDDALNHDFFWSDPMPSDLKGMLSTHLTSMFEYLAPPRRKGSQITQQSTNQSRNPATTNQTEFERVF
Chain of CDK-9/Cyclin T1 (O60563 whole entry partner): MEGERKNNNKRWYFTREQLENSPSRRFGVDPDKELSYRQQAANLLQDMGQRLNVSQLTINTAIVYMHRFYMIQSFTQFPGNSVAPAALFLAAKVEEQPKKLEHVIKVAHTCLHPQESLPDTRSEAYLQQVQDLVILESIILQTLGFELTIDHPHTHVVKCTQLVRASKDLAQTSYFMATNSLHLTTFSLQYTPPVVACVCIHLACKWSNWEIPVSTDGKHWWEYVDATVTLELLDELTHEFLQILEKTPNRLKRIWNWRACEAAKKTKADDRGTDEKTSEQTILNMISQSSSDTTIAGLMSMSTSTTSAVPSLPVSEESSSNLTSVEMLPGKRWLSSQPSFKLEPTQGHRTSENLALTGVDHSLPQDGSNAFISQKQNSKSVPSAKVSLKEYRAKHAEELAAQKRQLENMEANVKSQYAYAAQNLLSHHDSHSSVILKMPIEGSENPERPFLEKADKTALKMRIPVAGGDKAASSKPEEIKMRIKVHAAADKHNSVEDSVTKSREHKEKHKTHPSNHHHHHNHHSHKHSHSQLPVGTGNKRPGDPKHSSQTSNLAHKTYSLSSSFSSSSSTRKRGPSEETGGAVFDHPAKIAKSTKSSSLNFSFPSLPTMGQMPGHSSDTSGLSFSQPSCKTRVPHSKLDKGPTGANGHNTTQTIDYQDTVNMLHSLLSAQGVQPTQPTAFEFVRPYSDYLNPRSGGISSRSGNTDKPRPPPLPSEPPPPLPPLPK
Description: (50-1000 cpm/pmole) and incubated for 30 min at room temperature. Assays were stopped by addition of 5 µl of 0.5 M (3%) orthophosphoric acid and then harvested onto P81 Unifilter plates with a wash buffer of 50 mM orthophosphoric acid.

[3] = Table-7, read-out: In vitro CDK2 % of inhibition
[4] = read-out: inhibition against CDK2
[5] = at 500 nM, Table-7, read-out: In vitro CDK9 % of inhibition
[6] = at 500 nM, read-out: inhibition against CDK9
[7] = Table-6, read-out: In vitro CDK2 % of inhibition
[8] = at 500 nM, Table-6, read-out: In vitro CDK9 % of inhibition

SMILES	inhibition at 0.5 µM [1, 3]	inhibition at 0.5 µM [1, 4]	inhibition at 0.5 µM [2, 5]	inhibition at 0.5 µM [2, 6]	inhibition at 0.5 µM [1, 7]	inhibition at 0.5 µM [2, 8]	inhibition at 0.5 µM ([2]; read-out: In vitro CDK9 % of inhibition, at 500 nM, Table-6)
c1ccc2[nH]c(-c3cnc4[nH]cc(-c5ccnc(NC6CCCCCC6)n5)c4c3)cc2c1 [1A59, 4-(5-(1H-indol-2-yl)-1H-pyrrolo[2,3-b]pyridin-3-yl)-N-cycloheptylpyrimidin-2-amine]	> 70%	> 70%	> 70%	> 70%			
COc1ccc2[nH]c(-c3cnc4[nH]cc(-c5ccnc(NC6CCCC6)n5)c4c3)cc2c1 [1A37, N-cyclopentyl-4-(5-(5-methoxy-1H-indol-2-yl)-1H-pyrrolo[2,3-b]pyridin-3-yl)pyrimidin-2-amine]					> 70%	> 70%	
c1ccc2sc(-c3cnc4[nH]cc(-c5ccnc(NC6CCCC6)n5)c4c3)cc2c1 [1A38, 4-(5-(benzo[b]thiophen-2-yl)-1H-pyrrolo[2,3-b]pyridin-3-yl)-N-cyclopentylpyrimidin-2-amine]		> 50%		> 50%	> 50%	> 50%	
FC(F)(F)c1cccc(-c2cnc3[nH]cc(-c4ccnc(NCCc5ccccc5)n4)c3c2)c1 [1B4, N-phenethyl-4-(5-(3-(trifluoromethyl)phenyl)-1H-pyrrolo[2,3-b]pyridin-3-yl)pyrimidin-2-amine]	> 70%	> 70%	> 70%	> 70%			
FC(F)(F)c1cccc(-c2cnc3[nH]cc(-c4ccnc(NC5CCCC5)n4)c3c2)c1 [1A24, N-cyclopentyl-4-(5-(3-(trifluoromethyl)phenyl)-1H-pyrrolo[2,3-b]pyridin-3-yl)pyrimidin-2-amine]		> 50%		> 50%	> 50%	> 50%	
CCc1ccccc1-c1cnc2[nH]cc(-c3ccnc(NC4CCCCCC4)n3)c2c1 [1A50, N-cycloheptyl-4-(5-(2-ethylphenyl)-1H-pyrrolo[2,3-b]pyridin-3-yl)pyrimidin-2-amine]	> 70%	> 70%	> 70%	> 70%			
Clc1ccc(-c2cnc3[nH]cc(-c4ccnc(NC5CCCC5)n4)c3c2)cc1 [1A32, 4-(5-(4-chlorophenyl)-1H-pyrrolo [2,3-b]pyridin-3-yl)-N-cyclopentylpyrimidin-2-amine]		> 50%		> 50%	> 50%	> 50%	
CCc1ccccc1-c1cnc2[nH]cc(-c3ccnc(NCCc4ccccc4)n3)c2c1 [1B10, 4-(5-(2-ethylphenyl)-1H-pyrrolo[2,3-b]pyridin-3-yl)-N-phenethylpyrimidin-2-amine]	> 50%	> 50%	> 50%	> 50%			
c1ccc2c(-c3cnc4[nH]cc(-c5ccnc(NC6CC6)n5)c4c3)nccc2c1 [1A20, N-cyclopropyl-4-(5-(isoquinolin-1-yl)-1H-pyrrolo[2,3-b]pyridin-3-yl)pyrimidin-2-amine]		> 50%		> 50%	> 50%	< 50%	
c1ccc2c(-c3cnc4[nH]cc(-c5ccnc(NC6CCCCCC6)n5)c4c3)cccc2c1 [1A54, N-cycloheptyl-4-(5-(naphthalen-1-yl)-1H-pyrrolo[2,3-b]pyridin-3-yl)pyrimidin-2-amine]	> 70%	> 70%	> 70%	> 70%			
CSc1ccc(-c2cnc3[nH]cc(-c4ccnc(NCCc5ccccc5)n4)c3c2)cc1 [1B8, 4-(5-(4-(methylthio)phenyl)-1H-pyrrolo[2,3-b]pyridin-3-yl)-N-phenethylpyrimidin-2-amine]	> 50%	> 50%	> 50%	> 50%			
CSc1ccccc1-c1cnc2[nH]cc(-c3ccnc(NCCc4ccccc4)n3)c2c1 [1B9, 4-(5-(2-(methylthio)phenyl)-1H-pyrrolo[2,3-b]pyridin-3-yl)-N-phenethylpyrimidin-2-amine]	> 50%	> 50%	> 50%	> 50%			
CN1CC[C@H](c2c(O)cc(O)c3c(=O)cc(-c4ccccc4Cl)oc23)[C@H](O)C1 [Flavopyr idol, flavopiridol, reference compound]					> 70%		> 70%
CC(=O)c1ccc(-c2cnc3[nH]cc(-c4ccnc(NCCc5ccccc5)n4)c3c2)cc1 [1B13, 1-(4-(3-(2-(phenethylamino)pyrimidin-4-yl)-1H-pyrrolo[2,3-b]pyridin-5-yl)phenyl)ethan-1-one]	> 50%	> 50%	> 50%	> 50%			
c1cncc(-c2cnc3[nH]cc(-c4ccnc(NC5CCCC5)n4)c3c2)c1 [1A35, N-cyclopentyl-4-(5-(pyridin-3-yl)-1H-pyrrolo[2,3-b]pyridin-3-yl)pyrimidin-2-amine]		> 50%		> 50%	> 50%	> 50%	
O=Cc1ccc(-c2cnc3[nH]cc(-c4ccnc(NC5CC5)n4)c3c2)cc1 [1A13, 4-(3-(2-(cyclopropylamino)pyrimidin-4-yl)-1H-pyrrolo[2,3-b]pyridin-5-yl)benzaldehyde]		> 70%		> 70%	> 70%	> 70%	
Cc1cccc(-c2cnc3[nH]cc(-c4ccnc(NC5CCCCCC5)n4)c3c2)c1 [1A47, N-cycloheptyl-4-(5-(m-tolyl)-1H-pyrrolo[2,3-b]pyridin-3-yl)pyrimidin-2-amine]		> 50%		> 50%	> 50%	> 50%	
c1ccc2c(-c3cnc4[nH]cc(-c5ccnc(NC6CCCC6)n5)c4c3)cccc2c1 [1A34, N-cyclopentyl-4-(5-(naphthalen-1-yl)-1H-pyrrolo[2,3-b]pyridin-3-yl)pyrimidin-2-amine]					> 50%	> 50%	
CSc1ccccc1-c1cnc2[nH]cc(-c3ccnc(NC4CCCCCC4)n3)c2c1 [1A49, N-cycloheptyl-4-(5-(2-(methylthio)phenyl)-1H-pyrrolo[2,3-b]pyridin-3-yl)pyrimidin-2-amine]	< 50%		< 50%				
CSc1ccc(-c2cnc3[nH]cc(-c4ccnc(NC5CC5)n4)c3c2)cc1 [1A8, N-cyclopropyl-4-(5-(4-(methylthio)phenyl)-1H-pyrrolo[2,3-b]pyridin-3-yl)pyrimidin-2-amine]		> 70%		> 70%	> 70%	> 70%	
c1ccc(CCNc2nccc(-c3c[nH]c4ncc(-c5cccc6ccccc56)cc34)n2)cc1 [1B14, 4-(5-(naphthalen-1-yl)-1H-pyrrolo[2,3-b]pyridin-3-yl)-N-phenethylpyrimidin-2-amine]	> 50%	> 50%	> 50%	> 50%			
c1cc(-c2c[nH]c3ncc(-c4ccoc4)cc23)nc(NC2CCCC2)n1 [1A36, N-cyclopentyl-4-(5-(furan-3-yl)-1H-pyrrolo[2,3-b]pyridin-3-yl)pyrimidin-2-amine]		> 50%		> 50%	> 50%	> 50%	
O=Cc1ccc(-c2cnc3[nH]cc(-c4ccnc(NC5CCCCCC5)n4)c3c2)cc1 [1A53, 4-(3-(2-(cycloheptylamino)pyrimidin-4-yl)-1H-pyrrolo[2,3-b]pyridin-5-yl)benzaldehyde]	> 70%	> 70%	> 70%	> 70%			
FC(F)(F)Oc1ccc(-c2cnc3[nH]cc(-c4ccnc(NC5CC5)n4)c3c2)cc1 [1A3, N-cyclopropyl-4-(5-(4-(trifluoromethoxy)phenyl)-1H-pyrrolo[2,3-b]pyridin-3-yl)pyrimidin-2-amine]		> 70%		> 70%	> 70%	> 70%	
c1ccc2[nH]c(-c3cnc4[nH]cc(-c5ccnc(NC6CC6)n5)c4c3)cc2c1 [1A19, 4-(5-(1H-indol-2-yl)-1H-pyrrolo[2,3-b]pyridin-3-yl)-N-cyclopropylpyrimidin-2-amine]		> 70%		> 70%	> 70%	> 70%	
FC(F)(F)c1ccc(-c2cnc3[nH]cc(-c4ccnc(NC5CCCC5)n4)c3c2)cc1 [1A21, N-cyclopentyl-4-(5-(4-(trifluoromethyl)phenyl)-1H-pyrrolo[2,3-b]pyridin-3-yl)pyrimidin-2-amine]					< 50%	< 50%	
FC(F)(F)Oc1ccc(-c2cnc3[nH]cc(-c4ccnc(NCCc5ccccc5)n4)c3c2)cc1 [1B3, N-phenethyl-4-(5-(4-(trifluoromethoxy)phenyl)-1H-pyrrolo[2,3-b]pyridin-3-yl)pyrimidin-2-amine]	> 50%	> 50%	> 50%	> 50%			
